Blank lines part the entries; values can stand above or below the molecule they belong to. Activity calls are given as the source filed them.
Assays:
[1] = target: G-protein coupled receptor 55 (Homo sapiens, UniProt Q9Y2T6); test: inhibition of LPI-stimulated GPR55 beta-arrestin translocation – imaging, U2OS, beta-arrestin-GFP, LPI agonist, primary screen (AID 2013); assay type: functional;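 also: antagonist potency measured as reduced agonist-driven arrestin aggregation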
[2] = target: Photoreceptor-specific nuclear receptor (Homo sapiens, UniProt Q9Y5X4); assay type: functional;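 also: potency for compounds that break the NR2E3 corepressor complex and count as activators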
Sequence of Photoreceptor-specific nuclear receptor (Q9Y5X4 whole entry): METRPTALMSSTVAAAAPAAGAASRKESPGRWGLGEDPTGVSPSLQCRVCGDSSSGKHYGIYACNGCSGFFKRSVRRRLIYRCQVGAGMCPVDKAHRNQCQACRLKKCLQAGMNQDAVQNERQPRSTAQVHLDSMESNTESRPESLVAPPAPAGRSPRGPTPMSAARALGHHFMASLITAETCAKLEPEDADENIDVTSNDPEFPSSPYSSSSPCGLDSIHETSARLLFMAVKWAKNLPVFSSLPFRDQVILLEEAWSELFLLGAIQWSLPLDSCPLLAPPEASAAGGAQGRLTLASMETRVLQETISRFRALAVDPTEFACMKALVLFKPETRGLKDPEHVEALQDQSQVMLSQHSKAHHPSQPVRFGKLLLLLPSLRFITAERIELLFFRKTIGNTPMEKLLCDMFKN

[3] = target: Peroxisome proliferator-activated receptor gamma/Nuclear receptor corepressor 2 (Homo sapiens, UniProt P37231+Q9Y618); assay type: functional
Sequence of Peroxisome proliferator-activated receptor gamma/Nuclear receptor corepressor 2 (P37231 whole entry): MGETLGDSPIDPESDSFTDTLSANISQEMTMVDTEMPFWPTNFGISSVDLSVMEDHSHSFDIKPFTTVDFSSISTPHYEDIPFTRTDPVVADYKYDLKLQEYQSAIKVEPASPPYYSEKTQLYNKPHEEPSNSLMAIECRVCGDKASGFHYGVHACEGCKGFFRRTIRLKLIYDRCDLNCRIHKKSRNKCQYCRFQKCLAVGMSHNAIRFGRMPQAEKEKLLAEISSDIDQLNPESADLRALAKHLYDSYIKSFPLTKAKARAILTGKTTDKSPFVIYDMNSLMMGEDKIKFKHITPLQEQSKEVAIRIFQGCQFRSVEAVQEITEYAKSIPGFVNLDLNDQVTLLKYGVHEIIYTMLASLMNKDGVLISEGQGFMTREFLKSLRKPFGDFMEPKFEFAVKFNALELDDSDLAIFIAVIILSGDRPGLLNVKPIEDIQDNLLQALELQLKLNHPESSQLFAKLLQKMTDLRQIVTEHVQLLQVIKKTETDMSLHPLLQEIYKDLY
Sequence of Peroxisome proliferator-activated receptor gamma/Nuclear receptor corepressor 2 (Q9Y618 whole entry): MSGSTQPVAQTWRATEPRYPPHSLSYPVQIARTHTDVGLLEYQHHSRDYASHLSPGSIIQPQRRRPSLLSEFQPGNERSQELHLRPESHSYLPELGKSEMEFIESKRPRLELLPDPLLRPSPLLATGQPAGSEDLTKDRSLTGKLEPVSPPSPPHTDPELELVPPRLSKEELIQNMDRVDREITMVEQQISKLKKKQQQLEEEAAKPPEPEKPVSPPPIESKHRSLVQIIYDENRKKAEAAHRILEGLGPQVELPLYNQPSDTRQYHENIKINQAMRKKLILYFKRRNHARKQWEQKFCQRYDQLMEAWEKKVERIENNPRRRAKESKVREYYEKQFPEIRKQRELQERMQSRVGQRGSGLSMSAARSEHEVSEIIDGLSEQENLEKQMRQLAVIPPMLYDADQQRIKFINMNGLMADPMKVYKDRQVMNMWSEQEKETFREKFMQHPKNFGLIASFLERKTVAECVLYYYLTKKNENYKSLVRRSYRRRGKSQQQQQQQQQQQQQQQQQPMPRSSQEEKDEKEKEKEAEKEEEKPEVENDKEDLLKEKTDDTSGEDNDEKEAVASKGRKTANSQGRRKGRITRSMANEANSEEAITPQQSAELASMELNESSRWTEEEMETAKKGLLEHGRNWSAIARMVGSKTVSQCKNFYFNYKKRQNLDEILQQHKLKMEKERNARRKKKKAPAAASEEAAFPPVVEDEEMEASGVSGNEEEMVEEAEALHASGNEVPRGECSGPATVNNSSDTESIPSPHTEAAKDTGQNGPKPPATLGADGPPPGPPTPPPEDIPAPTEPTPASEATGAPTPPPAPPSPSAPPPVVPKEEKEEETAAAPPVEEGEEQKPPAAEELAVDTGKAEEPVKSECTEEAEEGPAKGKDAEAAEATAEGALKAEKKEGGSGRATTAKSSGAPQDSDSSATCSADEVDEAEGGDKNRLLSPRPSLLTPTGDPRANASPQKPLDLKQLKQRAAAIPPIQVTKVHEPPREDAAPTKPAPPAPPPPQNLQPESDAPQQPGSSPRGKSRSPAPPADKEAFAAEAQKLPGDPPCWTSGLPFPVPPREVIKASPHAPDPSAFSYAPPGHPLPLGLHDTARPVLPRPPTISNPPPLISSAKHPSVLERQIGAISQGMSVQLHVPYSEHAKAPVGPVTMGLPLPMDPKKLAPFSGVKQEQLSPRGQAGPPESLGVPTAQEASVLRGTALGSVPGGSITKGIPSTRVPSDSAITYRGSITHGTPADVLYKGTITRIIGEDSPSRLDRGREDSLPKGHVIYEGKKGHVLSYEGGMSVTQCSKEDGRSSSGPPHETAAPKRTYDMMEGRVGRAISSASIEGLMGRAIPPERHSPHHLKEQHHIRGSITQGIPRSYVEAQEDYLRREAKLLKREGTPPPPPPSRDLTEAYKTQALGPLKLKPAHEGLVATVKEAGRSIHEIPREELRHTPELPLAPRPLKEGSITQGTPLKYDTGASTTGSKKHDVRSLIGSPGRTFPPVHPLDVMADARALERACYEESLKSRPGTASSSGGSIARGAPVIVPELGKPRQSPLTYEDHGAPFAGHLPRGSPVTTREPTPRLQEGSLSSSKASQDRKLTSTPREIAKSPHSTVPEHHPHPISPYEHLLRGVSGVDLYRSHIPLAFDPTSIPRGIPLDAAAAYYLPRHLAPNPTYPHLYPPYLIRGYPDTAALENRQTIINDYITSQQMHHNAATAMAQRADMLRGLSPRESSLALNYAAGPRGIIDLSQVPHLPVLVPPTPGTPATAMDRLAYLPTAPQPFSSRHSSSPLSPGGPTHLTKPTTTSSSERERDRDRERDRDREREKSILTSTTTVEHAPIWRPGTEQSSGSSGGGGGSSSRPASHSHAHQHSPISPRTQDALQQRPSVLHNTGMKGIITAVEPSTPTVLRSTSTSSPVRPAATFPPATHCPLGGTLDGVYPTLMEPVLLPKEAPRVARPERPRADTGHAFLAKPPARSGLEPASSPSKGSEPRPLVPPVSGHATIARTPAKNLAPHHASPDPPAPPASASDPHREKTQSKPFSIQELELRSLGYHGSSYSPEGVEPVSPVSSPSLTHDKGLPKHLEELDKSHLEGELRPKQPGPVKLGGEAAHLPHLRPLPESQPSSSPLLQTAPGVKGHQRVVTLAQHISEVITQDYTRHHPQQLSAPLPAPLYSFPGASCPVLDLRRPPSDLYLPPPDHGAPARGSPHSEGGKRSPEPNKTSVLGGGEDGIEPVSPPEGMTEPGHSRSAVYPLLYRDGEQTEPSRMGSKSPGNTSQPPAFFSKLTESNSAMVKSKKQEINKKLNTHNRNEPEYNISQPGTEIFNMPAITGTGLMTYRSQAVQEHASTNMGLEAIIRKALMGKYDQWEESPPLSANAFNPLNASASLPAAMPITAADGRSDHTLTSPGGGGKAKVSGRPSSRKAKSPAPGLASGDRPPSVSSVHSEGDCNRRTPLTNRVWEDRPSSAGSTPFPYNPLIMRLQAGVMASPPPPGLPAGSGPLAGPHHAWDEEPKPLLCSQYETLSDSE

[4] = viability of uninfected HEp-2 cells – cell-based, HTS, cytotoxicity control for RSV inhibitor project, dose response (AID 2410); assay type: functional; conditions: human respiratory syncytial virus
[5] = cells
[6] = target: Intestinal-type alkaline phosphatase (Mus musculus, UniProt P24822); test: PubChem AID 488875; assay type: functional
Sequence of Intestinal-type alkaline phosphatase (Mus musculus, UniProt P24822) (P24822 whole entry): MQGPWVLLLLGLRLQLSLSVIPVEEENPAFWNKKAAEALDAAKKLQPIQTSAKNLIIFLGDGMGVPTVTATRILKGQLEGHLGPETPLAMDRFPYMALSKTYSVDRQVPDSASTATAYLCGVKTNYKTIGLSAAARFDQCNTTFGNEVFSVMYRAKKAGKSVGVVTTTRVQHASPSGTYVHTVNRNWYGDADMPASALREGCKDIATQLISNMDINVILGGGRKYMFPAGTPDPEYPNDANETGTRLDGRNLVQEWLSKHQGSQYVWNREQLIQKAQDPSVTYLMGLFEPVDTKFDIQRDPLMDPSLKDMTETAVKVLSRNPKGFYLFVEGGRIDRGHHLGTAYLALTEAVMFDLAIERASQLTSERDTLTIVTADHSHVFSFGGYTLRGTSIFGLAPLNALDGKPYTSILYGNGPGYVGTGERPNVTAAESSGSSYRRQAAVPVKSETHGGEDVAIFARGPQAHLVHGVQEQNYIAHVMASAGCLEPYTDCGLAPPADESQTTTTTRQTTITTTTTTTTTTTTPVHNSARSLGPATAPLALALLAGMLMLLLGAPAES

[7] = target: T1, Intestinal-type alkaline phosphatase (Homo sapiens, UniProt P09923); test: human intestinal alkaline phosphatase activators, dose response, biochemical, luminescence, uHTS hits (AID 463120); assay type: functional
T1 sequence (P09923 whole entry): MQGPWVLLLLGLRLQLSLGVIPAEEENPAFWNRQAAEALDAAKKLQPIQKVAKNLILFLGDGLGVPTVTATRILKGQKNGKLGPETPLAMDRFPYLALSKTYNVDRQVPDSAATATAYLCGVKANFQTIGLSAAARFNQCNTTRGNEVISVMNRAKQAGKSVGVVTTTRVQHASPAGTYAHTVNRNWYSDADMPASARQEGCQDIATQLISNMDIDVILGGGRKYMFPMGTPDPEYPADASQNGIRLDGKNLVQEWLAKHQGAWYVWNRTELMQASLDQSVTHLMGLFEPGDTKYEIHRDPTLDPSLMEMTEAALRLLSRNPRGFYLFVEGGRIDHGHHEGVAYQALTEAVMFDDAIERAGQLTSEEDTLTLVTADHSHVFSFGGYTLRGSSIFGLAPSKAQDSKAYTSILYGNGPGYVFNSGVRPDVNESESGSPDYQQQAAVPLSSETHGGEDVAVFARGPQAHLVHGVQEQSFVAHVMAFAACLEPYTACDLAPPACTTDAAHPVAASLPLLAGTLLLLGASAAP

[8] = target: T1, Intestinal-type alkaline phosphatase; test: activation of human intestinal alkaline phosphatase – biochemical, luminescent, uHTS hits, set 2, dose response (AID 488817); assay type: functional;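 also: potency of activators that raise enzyme activity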
[9] = target: T2, Alkaline phosphatase, tissue-nonspecific isozyme (Homo sapiens, UniProt P05186); test: activation of tissue-nonspecific alkaline phosphatase – biochemical, TNAP isozyme, human IAP uHTS hits, selectivity assay for human IAP activator project, dose response (AID 488886); assay type: functional;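 also: potency of compounds raising TNAP activity as a selectivity check on IAP activators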
T2 sequence (P05186 whole entry): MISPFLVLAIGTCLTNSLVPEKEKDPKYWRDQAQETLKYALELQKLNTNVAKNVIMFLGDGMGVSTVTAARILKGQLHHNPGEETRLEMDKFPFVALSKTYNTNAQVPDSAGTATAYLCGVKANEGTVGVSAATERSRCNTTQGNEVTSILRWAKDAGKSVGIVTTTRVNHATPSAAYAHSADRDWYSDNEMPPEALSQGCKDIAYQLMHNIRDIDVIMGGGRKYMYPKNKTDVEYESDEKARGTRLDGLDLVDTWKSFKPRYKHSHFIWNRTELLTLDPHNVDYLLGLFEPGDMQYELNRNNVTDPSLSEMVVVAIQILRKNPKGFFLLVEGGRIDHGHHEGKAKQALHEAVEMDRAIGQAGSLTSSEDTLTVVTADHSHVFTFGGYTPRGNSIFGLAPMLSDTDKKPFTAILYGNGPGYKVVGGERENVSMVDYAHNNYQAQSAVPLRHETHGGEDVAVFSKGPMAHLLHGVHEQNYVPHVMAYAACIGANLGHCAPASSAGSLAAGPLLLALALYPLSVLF

[10] = target: T3, Type-1 angiotensin II receptor (Homo sapiens, UniProt P30556); test: agonist activity at AGTR1 – cell-based, uHTS hits, selectivity assay for APJ receptor agonist project, dose response (AID 488865); assay type: functional;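 also: beta-arrestin recruitment to AT1 measured by enzyme fragment complementation luminescence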
T3 sequence (P30556 whole entry): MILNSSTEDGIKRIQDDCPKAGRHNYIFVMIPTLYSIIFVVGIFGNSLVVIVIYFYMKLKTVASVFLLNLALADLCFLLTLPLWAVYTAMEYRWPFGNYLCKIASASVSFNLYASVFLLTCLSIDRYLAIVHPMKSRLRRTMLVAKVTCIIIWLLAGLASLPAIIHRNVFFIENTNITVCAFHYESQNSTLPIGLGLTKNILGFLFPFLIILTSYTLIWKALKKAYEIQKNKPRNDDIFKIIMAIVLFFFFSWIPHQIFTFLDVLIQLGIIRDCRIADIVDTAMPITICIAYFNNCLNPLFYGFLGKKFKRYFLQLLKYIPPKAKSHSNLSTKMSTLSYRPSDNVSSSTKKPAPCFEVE

Sequence of G-protein coupled receptor 55 (Q9Y2T6 whole entry): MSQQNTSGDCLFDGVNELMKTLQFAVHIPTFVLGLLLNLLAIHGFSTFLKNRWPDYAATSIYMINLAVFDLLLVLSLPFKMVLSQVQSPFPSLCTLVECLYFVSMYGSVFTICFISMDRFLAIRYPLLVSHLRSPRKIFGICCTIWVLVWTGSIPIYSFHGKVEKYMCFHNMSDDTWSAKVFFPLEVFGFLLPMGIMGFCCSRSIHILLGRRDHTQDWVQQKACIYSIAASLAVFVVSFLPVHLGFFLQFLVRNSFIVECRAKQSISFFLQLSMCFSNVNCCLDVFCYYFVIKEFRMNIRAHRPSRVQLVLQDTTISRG

Structure (SMILES): COC(=O)c1cc2c(-c3ccccc3)c(C)c3ccccn3c-2c1C(=O)OC
IC50 [1]: 2.58 µM (active) | IC50 [2]: > 1.48 µM (active) | IC50 [3]: 1.31 µM (active) | CC50 [4]: 27 µM (active) | IC50 [5]: 23.4 µM (active)

EC50 [6]: > 100 µM (inactive) | EC50 [7]: 15.1 µM (active) | EC50 [8]: 20.8 µM (active) | EC50 [9]: 18.5 µM (active)
Structure (SMILES): COc1ccc(OC)c(NC(=O)c2cc(-c3cc(C)ccc3O)n[nH]2)c1

EC50 [10]: > 100 µM (inactive)
Structure (SMILES): COC/C=C/C1=CC2=CC(=O)C(C)(OC(=O)c3cnc4ccccc4n3)C(=O)C2=CN1c1ccccc1 (stereo not given)

— ChEMBL document CHEMBL1201862, “PubChem BioAssay data set” (2004)
